Test: Pharmacokinetics and biodistribution in Balb/cJ mice, single IM dose
Conditions: male, mouse, in vivo
Method: Male Balb/cJ mice (6–8 weeks of age; Jackson Labs, Bar Harbor, ME) were injected with NDTG or NMDTG (45 mg/kg DTG-eq.) intramuscularly (IM; caudal thigh muscle) in a volume of 40 µL/25 g mouse. For injections, NDTG and NMDTG were diluted to 28.1 mg DTG/mL in endotoxin-free water and 42.3 mg MDTG/mL in HEPES buffer, respectively. Twenty-five microliters of whole blood was collected by cheek puncture into 1 mL ACN at 1, 3, 7, 14, 21, 28, 35, 42, 49, and 56 days after drug administration. Animals were humanely euthanized using isoflurane followed by cervical dislocation at 28 and 56 days, and tissues (spleen, liver, lymph nodes, lungs, kidneys, gut-associated lymphoid tissue (GALT), and brain) were collected for drug quantitation. Drug concentration in whole blood and tissues was determined by UPLC-MS/MS using a Waters Acquity UPLC- Xevo TQ-S micro mass spectrometry system (Milford, MA). For blood analysis, 10 µL of internal standard (IS) solution was added to each sample. […] MDTG was quantified using a 7-min gradient of the same mobile phases at a flow rate of 0.35 mL/min. […] DTG and MDTG were detected at cone voltages of 10 V and 16 V and collision energies of 25 V and 44 V, respectively. […] Spectra were analyzed and quantified by MassLynx software version 4.1. Quantitation was based upon drug peak area to internal standard peak area ratios.

- time prodrug was detectable in blood: ≤ 3 days
Compound: CCCCCCCCCCCCCC(=O)Oc1c2n(cc(C(=O)NCc3ccc(F)cc3F)c1=O)C[C@@H]1OCC[C@@H](C)N1C2=O [MDTG]

— PMC5799307, “Creation of a long-acting nanoformulated dolutegravir” (Nature Communications, 2018)
